Source: patent US20160145247A1, “Aminomethyl-Biaryl Derivatives Complement Factor D inhibitors and uses thereof” (NOVARTIS AG, priority 2013, published 2016)

Key:
factor D [1] = target: T1, factor D (Homo sapiens, UniProt P00746); test: Human Complement Factor D ELISA Assay; assay type: biochemical; conditions: tested using the assay of Biological Example 1 (ELISA, Ba product quantified); read-out: activity against factor D
T1 construct: made in house; host or cells: E. coli

factor D [2] = target: T1, factor D; test: factor D inhibition assay of Biological Example 2; assay type: biochemical

T1 sequence (P00746 26-253): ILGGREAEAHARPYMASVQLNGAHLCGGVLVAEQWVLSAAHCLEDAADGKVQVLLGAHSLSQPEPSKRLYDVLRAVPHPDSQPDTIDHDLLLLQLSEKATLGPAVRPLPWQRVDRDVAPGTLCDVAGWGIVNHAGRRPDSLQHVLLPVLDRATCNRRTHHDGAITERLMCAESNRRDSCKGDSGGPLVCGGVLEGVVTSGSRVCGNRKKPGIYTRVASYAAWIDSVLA

CC[N+]1=C(/C=C/C=C/C=C2/N(CCCCCC(=O)NC[C@@]3(F)C[C@@H](C(=O)NCc4cccc(Cl)c4F)N(C(=O)Nc4cn(C(N)=O)c5ccccc45)C3)c3ccc(S(=O)(=O)O)cc3C2(C)C)C(C)(C)c2cc(S(=O)(=O)O)ccc21 [Biological Example 2.2, 2-((1E,3E,5E)-5-(1-(6-((((3S,5S)-1-((1-carbamoyl-1H-indol-3-yl)carbamoyl)-5-((3-chloro-2-fluorobenzyl)carbamoyl)-3-fluoropyrrolidin-3-yl)methyl)amino)-6-oxohexyl)-3,3-dimethyl-5-sulfoindolin-2-ylidene)penta-1,3-dien-1-yl)-1-ethyl-3,3-dimethyl-5-sulfo-3H-indol-1-ium]
IC50 (factor D [1]): 694 nM

C[C@@H](N)c1cccc(-c2cc(CCCF)cc(COc3ccccc3CC(=O)O)c2)c1F [Example 269-E, (R)-2-(2-((3′-(1-aminoethyl)-2′-fluoro-5-(3-fluoropropyl)-[1,1′-biphenyl]-3-yl)methoxy)phenyl)acetic acid]
IC50 (factor D [2]): 9 nM

C[C@H](N)c1cccc(-c2cc(CCCF)cc(COc3ccccc3CC(=O)O)c2)c1F [Example 270, (S)-2-(2-((3′-(1-aminoethyl)-2′-fluoro-5-(3-fluoropropyl)-[1,1′-biphenyl]-3-yl)methoxy)phenyl)acetic acid]
IC50 (factor D [2]): 11 nM

C[C@@H](N)c1cccc(-c2cc(CCCF)cc(COc3ccccc3CC(=O)O)c2)c1 [Example 271, (R)-2-(2-((3′-(1-aminoethyl)-5-(3-fluoropropyl)-[1,1′-biphenyl]-3-yl)methoxy)phenyl)acetic acid]
IC50 (factor D [2]): 10 nM

N[C@H](CO)c1cccc(-c2cc(CCCF)cc(COc3ccccc3CC(=O)O)c2)c1 [Example 272, (S)-2-(2-((3′-(1-amino-2-hydroxyethyl)-5-(3-fluoropropyl)-[1,1′-biphenyl]-3-yl)methoxy)phenyl)acetic acid]
IC50 (factor D [2]): 10 nM

Cc1ccc(-c2cccc([C@@H](C)N)c2F)cc1COc1ccccc1CC(=O)O [Example 273-B, (R)-2-(2-((3′-(1-aminoethyl)-2′-fluoro-4-methyl-[1,1′-biphenyl]-3-yl)methoxy)phenyl)acetic acid]
IC50 (factor D [2]): 14 nM

Cc1ccc(-c2cccc([C@H](C)N)c2F)cc1COc1ccccc1CC(=O)O [Example 274, (S)-2-(2-((3′-(1-aminoethyl)-2′-fluoro-4-methyl-[1,1′-biphenyl]-3-yl)methoxy)phenyl)acetic acid]
IC50 (factor D [2]): 340 nM

C[C@@H](N)c1cccc(-c2ccc(Cl)c(COc3ccccc3CC(=O)O)c2)c1F [Example 275, (R)-2-(2-((3′-(1-aminoethyl)-4-chloro-2′-fluoro-[1,1′-biphenyl]-3-yl)methoxy)phenyl)acetic acid]
IC50 (factor D [2]): 13 nM

COc1ccc(-c2cccc([C@@H](C)N)c2F)cc1COc1ccccc1CC(=O)O [Example 276, (R)-2-(2-((3′-(1-aminoethyl)-2′-fluoro-4-methoxy-[1,1′-biphenyl]-3-yl)methoxy)phenyl)acetic acid]
IC50 (factor D [2]): 160 nM

N[C@H](CO)c1cc(Cl)cc(-c2cccc(COc3ccccc3CC(=O)O)c2)c1 [Example 277-C, (S)-2-(2-((3′-(1-Amino-2-hydroxyethyl)-5′-chloro-[1,1′-biphenyl]-3-yl)methoxy)phenyl)acetic acid]
IC50 (factor D [2]): 190 nM

NC(CCF)c1cccc(-c2cccc(COc3ccccc3CC(=O)O)c2)c1 (stereo not drawn) [Example 278-B, 2-(2-((3′-(1-amino-3-fluoropropyl)-[1,1′-biphenyl]-3-yl)methoxy)phenyl)acetic acid]
IC50 (factor D [2]): 490 nM

N[C@H](CCF)c1cccc(-c2cc(Cl)cc(COc3ccccc3CC(=O)O)c2)c1 [Example 279-B, (R)-2-(2-((3′-(1-amino-3-fluoropropyl)-5-chloro-[1,1′-biphenyl]-3-yl)methoxy)phenyl)acetic acid]
IC50 (factor D [2]): 290 nM

C[C@@H](N)c1cccc(-c2ccc(C3CC3)c(COc3ccccc3CC(=O)O)c2)c1F [Example 280, (R)-2-(2-((3′-(1-aminoethyl)-4-cyclopropyl-2′-fluoro-[1,1′-biphenyl]-3-yl)methoxy)phenyl)acetic acid]
IC50 (factor D [2]): 6 nM

C[C@@H](N)c1cccc(-c2cc(COc3ccccc3CC(=O)O)cc(NCC3CC3(F)F)c2)c1F (stereo partly drawn) [Example 281-E, 2-(2-((3′-((R)-1-Aminoethyl)-5-(((2,2-difluorocyclopropyl)methyl)amino)-2′-fluoro-[1,1′-biphenyl]-3-yl)methoxy)phenyl)acetic acid]
IC50 (factor D [2]): 14 nM

CCc1ccc(-c2cccc([C@@H](C)N)c2F)cc1COc1ccccc1CC(=O)O [Example 282-D, (R)-2-(2-((3′-(1-aminoethyl)-4-ethyl-2′-fluoro-[1,1′-biphenyl]-3-yl)methoxy)phenyl)acetic acid]
IC50 (factor D [2]): 16 nM

Cc1cc(-c2cccc([C@@H](C)N)c2F)cc(COc2ccccc2CC(=O)O)c1C [Example 283, (R)-2-(2-((3′-(1-aminoethyl)-2′-fluoro-4,5-dimethyl-[1,1′-biphenyl]-3-yl)methoxy)phenyl)acetic acid]
IC50 (factor D [2]): 13 nM

N[C@H](CF)c1cccc(-c2cc(CNCC(F)(F)F)cc(COc3ccccc3CC(=O)O)c2)c1 [Example 284-B, (S)-2-(2-((3′-(1-amino-2-fluoroethyl)-5-(((2,2,2-trifluoroethyl)amino)methyl)-[1,1′-biphenyl]-3-yl)methoxy)phenyl)acetic acid]
IC50 (factor D [2]): 228 nM

NC(CF)c1cccc(-c2cc(CNCC(F)(F)F)cc(COc3ccccc3CC(=O)O)c2)c1F (stereo not drawn) [Example 285-A]
IC50 (factor D [2]): 35 nM

C[C@@H](N)c1cccc(-c2cc(CNCC(F)(F)F)cc(COc3ccccc3CC(=O)O)c2)c1F [Example 285-B]
IC50 (factor D [2]): 58 nM

NCc1cccc(-c2cc(CNC(c3ccccc3)C(F)(F)F)cc(COc3ccccc3CC(=O)O)c2)c1 (stereo not drawn) [Example 286-E, 2-(2-((3′-(aminomethyl)-5-(((2,2,2-trifluoro-1-phenylethyl)amino)methyl)-[1,1′-biphenyl]-3-yl)methoxy)phenyl)acetic acid]
IC50 (factor D [2]): 6 nM

N[C@H](CO)c1cccc(-c2cc(COc3ccccc3CC(=O)O)cc(C(=O)N[C@H]3CCOc4ccccc43)c2)c1 [Example 287-G, 2-(2-((3′-((S)-1-amino-2-hydroxyethyl)-5-((S)-chroman-4-ylcarbamoyl)-[1,1′-biphenyl]-3-yl)methoxy)phenyl)acetic acid]
IC50 (factor D [2]): 37 nM

CNCc1cccc(-c2cccc(COc3ccccc3CC(=O)O)c2)c1 [Example 288, 2-(2-((3′-((methylamino)methyl)-[1,1′-biphenyl]-3-yl)methoxy)phenyl)acetic acid]
IC50 (factor D [2]): 3430 nM

N#Cc1ccc(COc2ccccc2CC(=O)O)cc1-c1cccc(CN)c1 [Example 289, 2-(2-((3′-(aminomethyl)-6-cyano-[1,1′-biphenyl]-3-yl)methoxy)phenyl)acetic acid]
IC50 (factor D [2]): 850 nM

CC(C(=O)O)c1ccccc1OCc1cccc(-c2cccc(CN)c2)c1 (stereo not drawn) [Example 290, 2-(2-((3′-(aminomethyl)-[1,1′-biphenyl]-3-yl)methoxy)phenyl)propanoic acid]
IC50 (factor D [2]): 1670 nM

NCc1cc(Cl)cc(-c2cccc(COc3ccccc3CC(=O)O)c2)c1 [Example 291, 2-(2-((3′-(aminomethyl)-5′-chloro-[1,1′-biphenyl]-3-yl)methoxy)phenyl)acetic acid]
IC50 (factor D [2]): 190 nM

Cc1cc(CN)cc(-c2cccc(COc3ccccc3CC(=O)O)c2)c1 [Example 292-B, 2-(2-((3′-(aminomethyl)-5′-methyl-[1,1′-biphenyl]-3-yl)methoxy)phenyl)acetic acid]
IC50 (factor D [2]): 70 nM

CCc1ccc(CC(=O)O)c(OCc2cccc(-c3cccc(CN)c3)c2)c1 [Example 293, 2-(2-((3′-(aminomethyl)-[1,1′-biphenyl]-3-yl)methoxy)-4-ethylphenyl)acetic acid]
IC50 (factor D [2]): 5 nM

NCc1cccc(-c2cccc(COc3cc(C4CC4)ccc3CC(=O)O)c2)c1 [Example 294-A]
IC50 (factor D [2]): 9 nM

N#Cc1ccc(CC(=O)O)c(OCc2cccc(-c3cccc(CN)c3)c2)c1 [Example 294-B]
IC50 (factor D [2]): 40 nM

NCc1cccc(-c2cccc(COc3cc(C(N)=O)ccc3CC(=O)O)c2)c1 [Example 294-C]
IC50 (factor D [2]): 10 nM

CC(=O)NCc1ccc(CC(=O)O)c(OCc2cccc(-c3cccc(CN)c3)c2)c1 [Example 294-D]
IC50 (factor D [2]): 10 nM

CCNc1ccc(CC(=O)O)c(OCc2cccc(-c3cccc(CN)c3)c2)c1 [Example 294-E]
IC50 (factor D [2]): 490 nM

N#Cc1ccc(OCc2cccc(-c3cccc(CN)c3)c2)c(CC(=O)O)c1 [Example 294-F]
IC50 (factor D [2]): 70 nM

NCc1cccc(-c2cccc(COc3ccc(C(N)=O)cc3CC(=O)O)c2)c1 [Example 294-G]
IC50 (factor D [2]): 4030 nM

NCc1cccc(-c2cccc(COc3cc(CC4CC4)ccc3CC(=O)O)c2)c1 [Example 295-C, 2-(2-((3′-(aminomethyl)-[1,1′-biphenyl]-3-yl)methoxy)-4-(cyclopropylmethyl)phenyl)acetic acid]
IC50 (factor D [2]): 9 nM

CC(=O)NC(C(=O)O)c1ccccc1OCc1cccc(-c2cccc(CN)c2)c1 (stereo not drawn) [Example 296, 2-acetamido-2-(2-((3′-(aminomethyl)-[1,1′-biphenyl]-3-yl)methoxy)phenyl)acetic acid]
IC50 (factor D [2]): 2410 nM
